Numbers after ± are expanded uncertainties.
Assay: mn = molality of the nth substance listed, in mol/kg
Conditions: 298.15 K, 101 kPa, Liquid; for speed of sound: Sing-around technique in a fixed-path interferometer; for mass density: Vibrating tube method

C=CC(=O)OC [methyl propenoate] + O
Conditions | mass density [kg/m3] | speed of sound [m/s]
m1 = 0.0393 | 997.315 ± 0.11 | 1498.3 ± 1.2
m1 = 0.0445 | 997.337 ± 0.11 | 1498.7 ± 1.2
m1 = 0.0475 | 997.348 ± 0.11 | 1498.9 ± 1.2
m1 = 0.0543 | 997.381 ± 0.11 | 1499.1 ± 1.2
m1 = 0.0631 | 997.409 ± 0.11 | 1499.5 ± 1.2
m1 = 0.0712 | 997.451 ± 0.11 | 1499.9 ± 1.2
m1 = 0.0962 | 997.547 ± 0.11 | 1500.9 ± 1.2
m1 = 0.1341 | 997.677 ± 0.11 | 1502.1 ± 1.2
m1 = 0.1473 | 997.72 ± 0.11 | 1502.6 ± 1.2
m1 = 0.1826 | 997.809 ± 0.11 | 1503.8 ± 1.2
m1 = 0.2485 | 998.068 ± 0.11 | 1506.2 ± 1.2
m1 = 0.3666 | 998.512 ± 0.11 | 1510.6 ± 1.2
m1 = 0.4288 | 998.73 ± 0.11 | 1513.1 ± 1.2
m1 = 0.5131 | 999.004 ± 0.11 | 1516.7 ± 1.2

Cc1ccc(C=O)o1 [5-methylfurfural] + O
Conditions | mass density [kg/m3] | speed of sound [m/s]
m1 = 0.0067 | 997.297 ± 0.11 | 1497 ± 1.2
m1 = 0.0069 | 997.3 ± 0.11 | 1497 ± 1.2
m1 = 0.0081 | 997.319 ± 0.11 | 1497.1 ± 1.2
m1 = 0.0083 | 997.323 ± 0.11 | 1497.2 ± 1.2
m1 = 0.0084 | 997.325 ± 0.11 | 1497.2 ± 1.2
m1 = 0.0098 | 997.344 ± 0.11 | 1497.2 ± 1.2
m1 = 0.0103 | 997.35 ± 0.11 | 1497.2 ± 1.2
m1 = 0.0109 | 997.355 ± 0.11 | 1497.3 ± 1.2
m1 = 0.0122 | 997.373 ± 0.11 | 1497.3 ± 1.2
m1 = 0.0137 | 997.397 ± 0.11 | 1497.4 ± 1.2
m1 = 0.016 | 997.425 ± 0.11 | 1497.6 ± 1.2
m1 = 0.0179 | 997.454 ± 0.11 | 1497.7 ± 1.2
m1 = 0.0223 | 997.516 ± 0.11 | 1497.9 ± 1.2
m1 = 0.0257 | 997.563 ± 0.11 | 1498.1 ± 1.2
m1 = 0.0292 | 997.613 ± 0.11 | 1498.3 ± 1.2
m1 = 0.0462 | 997.848 ± 0.11 | 1499.2 ± 1.2
m1 = 0.0557 | 997.966 ± 0.11 | 1499.6 ± 1.2
m1 = 0.0608 | 998.055 ± 0.11 | 1500 ± 1.2
m1 = 0.0825 | 998.35 ± 0.11 | 1501.1 ± 1.2
m1 = 0.1136 | 998.767 ± 0.11 | 1503 ± 1.2
m1 = 0.1363 | 998.986 ± 0.11 | 1503.8 ± 1.2
m1 = 0.1454 | 999.221 ± 0.11 | 1504.2 ± 1.2
m1 = 0.1666 | 999.516 ± 0.11 | 1505.2 ± 1.2
m1 = 0.204 | 1000.01 ± 0.11 | 1506.9 ± 1.2
m1 = 0.2877 | 1001.14 ± 0.11 | 1511 ± 1.2

OCC1CCCO1 (stereo not drawn) [2-tetrahydrofurylmethanol] + O
Conditions | mass density [kg/m3] | speed of sound [m/s]
m1 = 0.0115 | 997.245 ± 0.11 | 1497.2 ± 1.2
m1 = 0.0127 | 997.265 ± 0.11 | 1497.4 ± 1.2
m1 = 0.0141 | 997.289 ± 0.11 | 1497.6 ± 1.2
m1 = 0.0149 | 997.301 ± 0.11 | 1497.7 ± 1.2
m1 = 0.0183 | 997.356 ± 0.11 | 1498.1 ± 1.2
m1 = 0.0193 | 997.373 ± 0.11 | 1498.2 ± 1.2
m1 = 0.0223 | 997.421 ± 0.11 | 1498.4 ± 1.2
m1 = 0.0281 | 997.511 ± 0.11 | 1498.5 ± 1.2
m1 = 0.0286 | 997.518 ± 0.11 | 1498.5 ± 1.2
m1 = 0.0337 | 997.596 ± 0.11 | 1498.7 ± 1.2
m1 = 0.0441 | 997.835 ± 0.11 | 1499.3 ± 1.2
m1 = 0.0462 | 997.862 ± 0.11 | 1499.5 ± 1.2
m1 = 0.0496 | 997.893 ± 0.11 | 1499.6 ± 1.2
m1 = 0.0584 | 998.028 ± 0.11 | 1500.3 ± 1.2
m1 = 0.0686 | 998.155 ± 0.11 | 1500.9 ± 1.2
m1 = 0.0731 | 998.209 ± 0.11 | 1501.1 ± 1.2
m1 = 0.0948 | 998.467 ± 0.11 | 1502.4 ± 1.2
m1 = 0.1082 | 998.66 ± 0.11 | 1503.2 ± 1.2
m1 = 0.1478 | 999.071 ± 0.11 | 1505.6 ± 1.2
m1 = 0.2077 | 999.663 ± 0.11 | 1509 ± 1.2
m1 = 0.2552 | 1000.11 ± 0.11 | 1511.8 ± 1.2
m1 = 0.35 | 1000.98 ± 0.11 | 1517.1 ± 1.2
m1 = 0.4904 | 1002.2 ± 0.11 | 1524.9 ± 1.2
m1 = 0.678 | 1003.77 ± 0.11 | 1534.7 ± 1.2
m1 = 1.16 | 1007.55 ± 0.11 | 1557.2 ± 1.2
m1 = 1.996 | 1013.36 ± 0.11 | 1589.1 ± 1.2
m1 = 2.959 | 1020.27 ± 0.12 | 1614.9 ± 1.3
m1 = 3.175 | 1021.74 ± 0.12 | 1620.8 ± 1.3
m1 = 3.559 | 1024.37 ± 0.12 | 1630.1 ± 1.3
m1 = 5.556 | 1036.45 ± 0.13 | 1672.3 ± 1.3

CCCCOC(=O)CCC(C)=O [butyl levulinate] + O
Conditions | mass density [kg/m3] | speed of sound [m/s]
m1 = 0.0029 | 997.066 ± 0.11 | 1497.3 ± 1.2
m1 = 0.0037 | 997.071 ± 0.11 | 1497.5 ± 1.2
m1 = 0.005 | 997.078 ± 0.11 | 1497.6 ± 1.2
m1 = 0.0055 | 997.08 ± 0.11 | 1497.6 ± 1.2
m1 = 0.0059 | 997.081 ± 0.11 | 1497.7 ± 1.2
m1 = 0.0074 | 997.088 ± 0.11 | 1497.9 ± 1.2
m1 = 0.0083 | 997.093 ± 0.11 | 1497.9 ± 1.2
m1 = 0.0088 | 997.096 ± 0.11 | 1497.9 ± 1.2
m1 = 0.011 | 997.107 ± 0.11 | 1498.2 ± 1.2
m1 = 0.0128 | 997.114 ± 0.11 | 1498.4 ± 1.2
m1 = 0.0135 | 997.123 ± 0.11 | 1498.5 ± 1.2
m1 = 0.0142 | 997.124 ± 0.11 | 1498.5 ± 1.2
m1 = 0.0208 | 997.158 ± 0.11 | 1499.1 ± 1.2
m1 = 0.0219 | 997.163 ± 0.11 | 1499.4 ± 1.2
m1 = 0.0257 | 997.183 ± 0.11 | 1499.7 ± 1.2
m1 = 0.0303 | 997.197 ± 0.11 | 1500 ± 1.2
m1 = 0.0312 | 997.209 ± 0.11 | 1500.1 ± 1.2
m1 = 0.0357 | 997.23 ± 0.11 | 1500.6 ± 1.2
m1 = 0.0466 | 997.273 ± 0.11 | 1501.4 ± 1.2
m1 = 0.0522 | 997.303 ± 0.11 | 1501.8 ± 1.2
m1 = 0.0625 | 997.333 ± 0.11 | 1502.5 ± 1.2

CCOC(=O)CCC(C)=O [ethyl levulinate] + O
Conditions | mass density [kg/m3] | speed of sound [m/s]
m1 = 0.0358 | 997.518 ± 0.11 | 1499.2 ± 1.2
m1 = 0.0404 | 997.561 ± 0.11 | 1499.6 ± 1.2
m1 = 0.0431 | 997.587 ± 0.11 | 1499.8 ± 1.2
m1 = 0.0492 | 997.643 ± 0.11 | 1500.2 ± 1.2
m1 = 0.0555 | 997.699 ± 0.11 | 1500.7 ± 1.2
m1 = 0.0696 | 997.825 ± 0.11 | 1501.6 ± 1.2
m1 = 0.0752 | 997.876 ± 0.11 | 1502 ± 1.2
m1 = 0.0921 | 998.027 ± 0.11 | 1503.1 ± 1.2
m1 = 0.1048 | 998.143 ± 0.11 | 1504 ± 1.2
m1 = 0.148 | 998.527 ± 0.11 | 1507.1 ± 1.2
m1 = 0.2329 | 999.277 ± 0.11 | 1512.1 ± 1.2
m1 = 0.2893 | 999.76 ± 0.11 | 1515.5 ± 1.2
m1 = 0.3426 | 1000.21 ± 0.11 | 1518.5 ± 1.2
m1 = 0.4292 | 1000.93 ± 0.11 | 1523.1 ± 1.2
m1 = 0.4826 | 1001.36 ± 0.11 | 1525.7 ± 1.2
m1 = 0.5834 | 1002.14 ± 0.11 | 1530.3 ± 1.2
m1 = 0.7128 | 1003.11 ± 0.11 | 1535.5 ± 1.2
m1 = 0.8299 | 1003.94 ± 0.11 | 1539.5 ± 1.2
m1 = 1.037 | 1005.27 ± 0.11 | 1545 ± 1.2

From the NIST ThermoML archive (doi:10.1016/j.jct.2013.06.020)
